Consider 14 compounds from patent US8633315B2, “Substituted hydroxyethyl amine compounds as beta-secretase modulators and methods of use” (Amgen Inc., priority 2007, dated 2014).

The test deals with BACE1 (Homo sapiens, UniProt P56817). Kind of test: In vitro enzymatic BACE FRET (fluorescence resonance energy transfer) assay. Format: biochemical. As to the method:
In Vitro Enzymatic BACE FRET (Fluorescence Resonance Energy Transfer) Assay (Enzyme Assay Data in Table 1)
The assay buffer used in this screen is 0.05 M acetate, pH 4.2, 10% DMSO final, 100 uM genapol (which is a nonionic detergent, below its Critical Micelle Concentration). […] The assay is effectively started by the addition of FRET substrate (50 nM) and the combination is incubated for one hour. The FRET assay is terminated with by addition of Tris buffer, which raises the pH to neutrality, and the fluorescence is determined. The FRET substrate is a peptide with commercially available fluorophore and quencher, on opposite sides of the BACE cleavage site. Proteolytic cleavage of the FRET substrate releases quenching of fluorescence (excitation […] and emission […]).

BACE1, sequence (P56817 46-501, species assumed): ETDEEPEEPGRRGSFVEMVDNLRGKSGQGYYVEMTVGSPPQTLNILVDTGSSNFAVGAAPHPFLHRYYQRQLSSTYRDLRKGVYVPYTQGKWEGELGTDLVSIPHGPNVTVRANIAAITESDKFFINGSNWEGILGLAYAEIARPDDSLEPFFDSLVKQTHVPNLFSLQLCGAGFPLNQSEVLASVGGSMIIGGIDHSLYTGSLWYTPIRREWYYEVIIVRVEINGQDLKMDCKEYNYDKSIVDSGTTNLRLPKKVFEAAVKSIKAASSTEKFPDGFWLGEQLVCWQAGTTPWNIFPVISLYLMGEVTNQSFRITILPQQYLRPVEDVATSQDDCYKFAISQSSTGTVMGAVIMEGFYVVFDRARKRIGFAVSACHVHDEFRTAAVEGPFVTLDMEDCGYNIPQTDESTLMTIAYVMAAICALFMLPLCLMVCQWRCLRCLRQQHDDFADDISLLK

By IC50 is commonly meant the midpoint of a concentration-inhibition curve. On to `C=CC[C@H](NC(C)=O)[C@H](O)CN[C@H]1C[C@]2(CC[C@H]2O)Oc2ncc(CC(C)(C)C)cc21` [Example 52, N-((1S)-1-((1R)-2-(((1S,2R,4′S)-6′-(2,2-dimethylpropyl)-2-hydroxy-3′,4′-dihydrospiro[cyclobutane-1,2′-pyrano[2,3-b]pyridin]-4′-yl)amino)-1-hydroxyethyl)-3-buten-1-yl)acetamide], for which the IC50 was determined as 0.07 µM. As to `C=CC[C@H](NC(C)=O)[C@H](O)CN[C@H]1CC2(CCC2)Oc2ncc(C[C@H](C)C(F)(F)F)cc21` [Example 122, N-((1S)-1-((1R)-1-hydroxy-2-(((4′S)-6′-((2S)-3,3,3-trifluoro-2-methylpropyl)-3′,4′-dihydrospiro[cyclobutane-1,2′-pyrano[2,3-b]pyridin]-4′-yl)amino)ethyl)-3-buten-1-yl)acetamide], the IC50 worked out at 0.322 µM. For `C=CC[C@H](NC(=O)c1ccno1)[C@H](O)CN[C@H]1CC2(CCC2)Oc2ncc(CC(C)(C)C)cc21` [Example 93, N-((1S)-1-((1R)-2-(((4′S)-6′-(2,2-dimethylpropyl)-3′,4′-dihydrospiro[cyclobutane-1,2′-pyrano[2,3-b]pyridin]-4′-yl)amino)-1-hydroxyethyl)-3-buten-1-yl)-5-isoxazolecarboxamide] the value was 0.043 µM; for `CC(=O)N[C@H]([C@H](O)CN[C@H]1CC2(CCC2)Oc2ncc(CC(C)(C)C)cc21)C(C)(C)C` [Example 81, N-((1S)-1-((1R)-2-(((4′S)-6′-(2,2-dimethylpropyl)-3′,4′-dihydrospiro[cyclobutane-1,2′-pyrano[2,3-b]pyridin]-4′-yl)amino)-1-hydroxyethyl)-2,2-dimethylpropyl)acetamide], 21.4 µM; for `C=CCC(NC(C)=O)C(O)CNC1CC2(CC(C#N)C2)Oc2ncc(CC(C)(C)C)cc21` [Example 114, N-((1S)-1-((1R)-2-(((1r,3S,4′S)-3-cyano-6′-(2,2-dimethylpropyl)-3′,4′-dihydrospiro[cyclobutane-1,2′-pyrano[2,3-b]pyridin]-4′-yl)amino)-1-hydroxyethyl)-3-buten-1-yl)acetamide], 0.378 µM. In the case of `C=CC[C@H](NC(=O)[C@H]1CCCO1)[C@H](O)CN[C@H]1CC2(CCC2)Oc2ncc(CC(C)(C)C)cc21` [Example 92, (2R)-N-((1S)-1-((1R)-2-(((4′S)-6′-(2,2-dimethylpropyl)-3′,4′-dihydrospiro[cyclobutane-1,2′-pyrano[2,3-b]pyridin]-4′-yl)amino)-1-hydroxyethyl)-3-buten-1-yl)tetrahydro-2-furancarboxamide], the IC50 worked out at 0.084 µM.

Consider `C=CC[C@H](NC(=O)COC)[C@H](O)CNC1CC2(CCC2)Oc2ncc(CC(C)C)cc21` (stereo partly drawn) [Example 39, N-((1S)-1-((1R)-1-hydroxy-2-((6′-(2-methylpropyl)-3′,4′-dihydrospiro[cyclobutane-1,2′-pyrano[2,3-b]pyridin]-4′-yl)amino)ethyl)-3-buten-1-yl)-2-(methyloxy)acetamide], for which the IC50 is 0.147 µM.

For the compound `C=CC[C@H](NC(C)=O)[C@H](O)CN[C@H]1CC2(CCC2)Oc2ccc(CC(C)(C)C)cc21` [Example 33, N-((1S)-1-((1R)-2-(((4S)-6-(2,2-dimethylpropyl)-3,4-dihydrospiro[chromene-2,1′-cyclobutan]-4-yl)amino)-1-hydroxyethyl)-3-buten-1-yl)acetamide], the half-maximal inhibitory concentration (IC50) stood at 0.212 µM. For the compound `C=CC[C@H](NC(C)=O)[C@H](O)CN[C@H]1C[C@@]2(CC[C@@H]2O)Oc2ncc(CC(C)(C)C)cc21` [Example 53, N-((1S)-1-((1R)-2-(((1R,2S,4′S)-6′-(2,2-dimethylpropyl)-2-hydroxy-3′,4′-dihydrospiro[cyclobutane-1,2′-pyrano[2,3-b]pyridin]-4′-yl)amino)-1-hydroxyethyl)-3-buten-1-yl)acetamide], the IC50 was found to be 8.21 µM. Take `CCC[C@H](NC(C)=O)[C@H](O)CN[C@H]1C[C@@]2(CC[C@@H]2O)Oc2ncc(CC(C)(C)C)cc21` [Example 54, N-((1S)-1-((1R)-2-(((1R,2S,4′S)-6′-(2,2-dimethylpropyl)-2-hydroxy-3′,4′-dihydrospiro[cyclobutane-1,2′-pyrano[2,3-b]pyridin]-4′-yl)amino)-1-hydroxyethyl)butyl)acetamide]: the IC50 was 18.6 µM. For `C=CC[C@H](NC(=O)COC)[C@H](O)CN[C@H]1CC2(CCC2)Oc2ncc(C[C@H](C)C(F)(F)F)cc21` [Example 123, N-((1S)-1-((1R)-1-hydroxy-2-(((4′S)-6′-((2S)-3,3,3-trifluoro-2-methylpropyl)-3′,4′-dihydrospiro[cyclobutane-1,2′-pyrano[2,3-b]pyridin]-4′-yl)amino)ethyl)-3-buten-1-yl)-2-(methyloxy)acetamide] the value was 0.177 µM; for `C=CCC(NC(=O)COC)C(O)CNC1CC2(CC(C#N)C2)Oc2ncc(CC(C)(C)C)cc21` [Example 113, N-((1S)-1-((1R)-2-(((1r,3S,4′S)-3-cyano-6′-(2,2-dimethylpropyl)-3′,4′-dihydrospiro[cyclobutane-1,2′-pyrano[2,3-b]pyridin]-4′-yl)amino)-1-hydroxyethyl)-3-buten-1-yl)-2-(methyloxy)acetamide], 0.302 µM; for `C=CC[C@H](NC(=O)COC)[C@H](O)CN[C@H]1CC2(CCC2)Oc2ccc(CC(C)(C)C)cc21` [Example 34, N-((1S)-1-((1R)-2-(((4S)-6-(2,2-dimethylpropyl)-3,4-dihydrospiro[chromene-2,1′-cyclobutan]-4-yl)amino)-1-hydroxyethyl)-3-buten-1-yl)-2-(methyloxy)acetamide], 0.061 µM. Turning to `C=CC[C@H](NC(=O)COC)[C@H](O)CN[C@H]1CC2(CCC2)Oc2ncc(C[C@@H](C)C(F)(F)F)cc21` [Example 124, N-((1S)-1-((1R)-1-hydroxy-2-(((4′S)-6′-((2R)-3,3,3-trifluoro-2-methylpropyl)-3′,4′-dihydrospiro[cyclobutane-1,2′-pyrano[2,3-b]pyridin]-4′-yl)amino)ethyl)-3-buten-1-yl)-2-(methyloxy)acetamide], the half-maximal inhibitory concentration (IC50) stood at 0.412 µM.
